# Results published in patent US20240366596A1, “TREATMENT OF HFPEF IN POST-MENOPAUSAL WOMEN WITH AN SGC STIMULATOR” (Cyclerion Therapeutics, Inc., priority 2021, published 2024).
# Read-outs that look alike come from different tables or passages of the source.
# Legend:
# [1] = test system: participants with chronic HF and an ejection fraction (EF) of ≥45% (i.e., HFpEF); settings: cited from earlier work
# [2] = test system: participants with chronic HF, an LVEF of at least 45% (i.e., HFpEF); settings: cited from earlier work
# [3] = test system: women compared with men with heart failure and preserved ejection fraction; settings: cited from earlier work
# [4] = test system: subjects with symptomatic HF and an LVEF≥45%; settings: women, spironolactone vs placebo, subjects from the Americas; cited from earlier work
# participants with HFpEF [5] = test: CAPACITY HFpEF Phase 2 trial of praliciguat: cardiopulmonary exercise testing (CPET); type: in vivo, human
# Text: (§1) A Multicenter, Randomized, Double-Blind, Placebo-Controlled, Phase 2 Study Evaluating the Safety and Efficacy of Different Doses of Praliciguat (IW-1973, Compound I-1) Over 12 Weeks in Patients with Heart Failure with Preserved Ejection Fraction (CAPACITY HFpEF).
# The primary objectives of this clinical study (ClinicalTrials.gov Identifier NCT03254485) were to assess the safety of oral praliciguat when administered for approximately 12 weeks to participants with HFpEF, and to evaluate the effect of oral praliciguat on peak exercise capacity (as measured by oxygen consumption [VO2]) when administered for approximately 12 weeks to participants with HFpEF, both in all participants and in participants without permanent or persistent atrial fibrillation.
# The primary efficacy endpoint was the change from baseline in peak VO2 as measured by cardiopulmonary exercise testing (CPET) at Week 12 of the Treatment period. CPET was performed at baseline, at Week 8 and again at Week 12 using a highly standardized study-specific protocol. To participate in this study, each study site had to submit 2 studies to the CPET Core Laboratory at Massachusetts General Hospital core laboratory for review, and studies had to be determined to be of adequate quality before the site was deemed CPET qualified. For the 3 CPETs required by the study protocol, each study participant was to use the same form of exercise (treadmill or bicycle) and undergo the CPETs at the same time of day (+2 hours), ≥1 hour after study medication dosing. As part of the procedure, participants exercised to peak capacity beginning with unloaded exercise and continuing with a symptom-limited incremental ramp to peak VO2 with requisite respiratory exchange ratio (RER)≥1. For the baseline CPET, a participant's RER had to be ≥1.0 in order to indicate an adequate test (i.e., adequate effort on the part of the study participant, to try to mitigate stopping for non-cardiopulmonary reasons [e.g., effort-related or musculoskeletal]). Additional CPET-related study eligibility criteria included a peak VO2 of ≤80% of the predicted or age- and sex-adjusted normal level (FLETCHER G F, et al. Exercise standards. A statement for healthcare professionals from the American Heart Association. Writing Group. Circulation. 1995;91 [2]: 580-615), which served as an objective indicator of exercise intolerance characteristic of HF. For the Week 8 and End of Treatment CPETs, participants were to exercise to maximum effort, ideally to RER≥1.0. Analysis of CPET measurements for eligibility and for efficacy analyses were conducted by the independent central CPET Core Lab that was blinded to treatment allocation.
# (§2) The pre-specified major secondary endpoints were the change from baseline in 6-minute walk test (6MWT) distance at Week 12, the change from baseline in ventilatory efficiency as defined by VE/VCO2 slope (minute ventilation/volume of carbon dioxide production) as obtained via CPET at Week 12, and the number of CPET responders defined as participants who improved by at least 1.5 mL O2/kg/min in peak VO2 from baseline to Week 12. In the CPET responder analysis, participants who were hospitalized or who died due to heart failure during the study Treatment Period or were missing Week 12 post-dose CPET values were considered to be non-responders.
# (§3) This Phase 2, multicenter, randomized, double-blind, placebo-controlled, parallel-group study evaluated the safety and efficacy of praliciguat compared with placebo. The study randomized 196 adults with established heart failure (HF) and limited exercise capacity with an ejection fraction (EF) of at least 40% and who had at least 2 of 4 risk factors for HFpEF (diabetes/prediabetes, hypertension, obesity, and advanced age) (see Inclusion and Exclusion Criteria below).
# Dosing on Days 1 to 14 (±3) was 20 mg BID (twice daily). Dosing on Day 15 (±3) onward was 40 mg QD (once daily). […]
# participants with HFpEF [6] = test: CAPACITY HFpEF Phase 2 trial of praliciguat: 6-minute walk test (6MWT); type: in vivo, human
# Text: as §1, §2, §3
# Screening Period: The Screening Period started with the signing of the ICF at the Screening Visit and lasted up to 45 days. At the Screening Visit, potential participants underwent screening procedures to determine their initial study eligibility. At the Baseline Visit, participants returned to the clinic for additional screening procedures to confirm their eligibility, including assessment of their CPET values, vital sign measurements, and blood and urine sample collections, and to receive urine sample collection supplies to take home. The Screening Visit could be combined with the Baseline Visit if the participant was fasted for blood and urine collections. CPET and 6MWT were to occur within 14 days before Randomization. The end of the Screening Period coincided with the beginning of the Treatment Period.
# participants with HFpEF [7] = test: CAPACITY HFpEF Phase 2 trial of praliciguat: safety (treatment-emergent adverse events); type: in vivo, human
# Text: as §1
# (§4) The primary safety endpoints were based on the incidence of treatment-emergent adverse events (TEAEs) and of TEAEs that were considered study drug-related by the investigator. TEAEs were defined as AEs that started or worsened in severity after administration of study drug. Medical history, prior and concomitant medications and surgeries/procedures, and adverse events (AEs) were collected throughout the study. Physical examination, vital sign measurements including orthostatic blood pressures, clinical laboratory tests, pregnancy tests, and ECGs were performed. Blood was also collected to determine pharmacokinetic (PK) parameters and plasma concentrations of praliciguat.
# as §3
# participants with HFpEF [8] = test: CAPACITY HFpEF Phase 2 trial of praliciguat: cardiometabolic endpoints (blood pressure, HbA1c); type: in vivo, human; settings: Week 12
# Text: as §1, §4
# Other exploratory endpoints included assessment of echocardiographic parameters (as determined by an independent, central echocardiography core laboratory that was blinded to treatment assignment); changes from baseline to Week 12 and Follow-up visits in New York Heart Association (NYHA) functional classification (I, II, III, or IV); cardiac events (hospitalizations of CV etiology and all deaths were analyzed by the central, independent, blinded cardiac events adjudicators who determined if an event was due to heart failure or was of other CV etiology); changes from baseline to Week 12 in blood and urine biomarker levels that are relevant to HF pathophysiology; and changes from baseline to Week 12 in NT-proBNP values, urine albumin creatinine ratios (UACRs), estimated glomerular filtration rates (eGFRs), and HOMA-IR changes. Changes from baseline responses in participants' self-administered health-related quality-of-life (QOL) questionnaires were also tabulated and analyzed, including the Kansas City Cardiomyopathy Questionnaire (KCCQ), the Sheehan Disability Scale (SDS), the EuroQol (EQ) 5D-5L, and the Quick Inventory of Depressive Symptomatology Self-Report 16-item version (QIDS-SR-16).
# Whereas the change from baseline relative to placebo in the general population was a reduction of 3.5 mmHg in the systolic blood pressure, this change was 7.9 mmHg reduction for the subpopulation of elderly women. Similarly, whereas the change from baseline relative to placebo in the general population was a reduction of 2.1 mmHg in the diastolic blood pressure, this change was 8.2 mmHg reduction for the subpopulation of elderly women. And also similarly, the change from baseline relative to placebo in the general population was a reduction of 0.18% points in the measurement of HbA1C, this change was 0.41% reduction from baseline relative to placebo for the subpopulation of elderly women
# [9] = test system: patients with chronic HF with HFpEF; settings: top-line results; cited from earlier work
# [10] = test system: Dahl salt-sensitive rat model; test: Dahl salt-sensitive (DSS) hypertension rat model of HFpEF; type: in vivo; settings: olinciguat 10 mg/kg, FIG. 4
# Method: All data are plotted as mean±SEM. **p<0.01. ***p<0.001 vs high-salt (HS) control.
# The cardioprotective effects of olinciguat were tested in two animal models of HF: the rat post-myocardial infarction (MI) model of heart failure with reduced ejection fraction and in the Dahl salt-sensitive (DSS) hypertension model, which develops HFpEF.
# obese ZSF1 rats = test: ZSF1 rat model of diabetic nephropathy with metabolic syndrome; type: in vivo
# Text: All data are plotted as mean±SEM. #p<0.05. ##p<0.01 vs obese control.
# Aged ZSF1 rats have also been reported to develop HF consistent with HFpEF. In the ZSF1 model of diabetic nephropathy and metabolic syndrome, olinciguat was renoprotective and associated with lower circulating glucose, cholesterol, and triglycerides, all of which are relevant for this the population of post-menopausal women with HFpEF that tend to show a metabolic phenotype. Also in this model, baseline plasma NT-proBNP levels were similar in all obese ZSF1 groups [obese, group treated with enalapril (ENP), ENP+OLI10 (enalapril+oli at 10 mg/kg), and ENP+OLI30 (enalapril+oli at 30 mg/kg)]. NT-proBNP, analyzed as change from baseline to the end of treatment, increased in the obese control and ENP groups, and decreased in ENP+OLI10 and ENP+OLI30 groups (FIG. 5).
# [11] = test system: normotensive and hypertensive rats; test: Blood pressure in normotensive and hypertensive rats; type: in vivo, rat
# [12] = pooled three highest vericiguat dose arms, 12 weeks, vs placebo
# [13] = 40 mg praliciguat vs placebo, Primary Analytic Population, Week 12
# [14] = elderly women (older than 70), 12 weeks of treatment, CPET responder analysis
# [15] = women of age > 70, week 12, 40 mg
# [16] = women of age > 70, week 12, 40 mg vs placebo
molecule,measurement,setting,value
COC(=O)Nc1c(N)nc(-c2nn(Cc3ccccc3F)c3ncc(F)cc23)nc1N [vericiguat],proportion of participants achieving clinically meaningful improvements in KCCQ-clinical summary score,[1]; 10 mg vericiguat compared with placebo arm,larger proportion
same,change in left atrial volume,[1]; [12],NOT different from placebo
same,change in log NT-proBNP,[1]; [12],NOT different from placebo
same,mean change in the physical limitation score of the KCCQ,[2]; 10-mg group,6.5 points
same,mean change in the physical limitation score of the KCCQ,[2]; 15-mg group,5.5 points
sacubitril-valsartan,"rate ratio for sacubitril-valsartan versus valsartan, primary outcome (HF hospitalizations and cardiovascular death)",[3]; men,1.03
same,"rate ratio for sacubitril-valsartan versus valsartan, primary outcome (HF hospitalizations and cardiovascular death)",[3]; women,0.73
CC(=O)S[C@@H]1CC2=CC(=O)CC[C@]2(C)[C@H]2CC[C@@]3(C)[C@@H](CC[C@@]34CCC(=O)O4)[C@H]12 [spironolactone],all-cause mortality HR,[4],0.66
OC(CNc1nc(-c2cc(-c3ccon3)n(Cc3ccccc3F)n2)ncc1F)(C(F)(F)F)C(F)(F)F [praliciguat],placebo-adjusted LSM difference in change from baseline in peak VO2,participants with HFpEF [5]; [13],-0.30 mL/min/kg
same,placebo-adjusted LSM difference in change in ventilation/carbon dioxide production slope,participants with HFpEF [5]; [13],−0.3
same,adjusted change from baseline in peak VO2 at Week 12,"participants with HFpEF [5]; 40 mg praliciguat, Primary Analytic Population (n=65), Week 12",-0.26 mL/min/kg
same,patients with a higher than 1 mL/O2/kg/min improvement in peak VO2,participants with HFpEF [5]; [14],About 50%
same,patients with a higher than 1.5 mL/O2/kg/min improvement in peak VO2,participants with HFpEF [5]; [14],35-40%
same,placebo-adjusted LSM difference in change from baseline in peak VO2,"participants with HFpEF [5]; post hoc, elderly women (70 years or older), 40 mg praliciguat (n=16) vs placebo (n=18), Week 8",0.75 mL/min/kg
same,placebo-adjusted LSM difference in change from baseline in peak VO2,"participants with HFpEF [5]; post hoc, elderly women (70 years or older), 40 mg praliciguat (n=16) vs placebo (n=18), Week 12",1.58 mL/min/kg
same,improvement in peak work load,"participants with HFpEF [5]; sub-population of elderly women, week 12",about 6.5%
same,worsening in peak work load,participants with HFpEF [5]; whole population,1%
same,Peak Workload LS Mean,participants with HFpEF [5]; [15],12.6395 Watts
same,Peak Workload LS Mean Diff,participants with HFpEF [5]; [16],6.5195 Watts
same,placebo-adjusted LSM difference in change from baseline in 6MWT distance,participants with HFpEF [6]; [13],−16.7 m
same,adjusted change in 6-minute walk test (6MWT) distance,"participants with HFpEF [6]; 40 mg praliciguat, Primary Analytic Population, Week 12",41.4 m
same,improvement in 6MW vs placebo,participants with HFpEF [6]; subpopulation of elderly women,23 meters
same,Six Minute Walk Test LS Mean,participants with HFpEF [6]; [15],73.6369
same,Six Minute Walk Test LS Mean Diff,participants with HFpEF [6]; [16],22.7533
same,deaths,"participants with HFpEF [7]; 40 mg praliciguat, fatal events considered not related to study drug",One death
same,participants with at least one TEAE of dizziness,"participants with HFpEF [7]; human, in vivo, 12 weeks",9.9%
same,participants with at least one TEAE of headache,"participants with HFpEF [7]; human, in vivo, 12 weeks",11%
same,participants with at least one TEAE of hypotension,"participants with HFpEF [7]; human, in vivo, 12 weeks",8.8%
same,participants with at least one serious TEAE,"participants with HFpEF [7]; human, in vivo, 12 weeks",10%
same,"reduction in HbA1C, change from baseline relative to placebo",participants with HFpEF [8]; general population,0.18 % points
same,"reduction in diastolic blood pressure, change from baseline relative to placebo",participants with HFpEF [8]; general population,2.1 mmHg
same,"reduction in systolic blood pressure, change from baseline relative to placebo",participants with HFpEF [8]; general population,3.5 mmHg
same,"reduction in HbA1C, change from baseline relative to placebo",participants with HFpEF [8]; subpopulation of elderly women,0.41%
same,"reduction in diastolic blood pressure, change from baseline relative to placebo",participants with HFpEF [8]; subpopulation of elderly women,8.2 mmHg
same,"reduction in systolic blood pressure, change from baseline relative to placebo",participants with HFpEF [8]; subpopulation of elderly women,7.9 mmHg
OC[C@H]1O[C@@H](c2ccc(Cl)c(Cc3ccc(O[C@H]4CCOC4)cc3)c2)[C@H](O)[C@@H](O)[C@@H]1O [empagliflozin],risk for the composite of cardiovascular death or hospitalization for HF compared with placebo,[9],significantly reduced risk
NC(=O)[C@](O)(CNc1nc(-c2cc(-c3ccon3)n(Cc3ccccc3F)n2)ncc1F)C(F)(F)F [olinciguat],cardioprotection (cardiac weights),[10],cardioprotective
same,lung congestion (lung weights),[10],reduced lung congestion
same,NT-proBNP levels,[10]; plasma,reduced NT-proBNP levels
same,circulating cholesterol,"obese ZSF1 rats; rat, in vivo",lower
same,circulating glucose,"obese ZSF1 rats; rat, in vivo",lower
same,circulating triglycerides,"obese ZSF1 rats; rat, in vivo",lower
same,renoprotection,"obese ZSF1 rats; rat, in vivo",renoprotective
same,blood pressure,[11],reduced blood pressure
"CCOC(=O)[C@H](CCc1ccccc1)N[C@@H](C)C(=O)N1CCC[C@H]1C(=O)O [enalapril, reference compound]","NT-proBNP, change from baseline to the end of treatment","obese ZSF1 rats; enalapril alone (ENP group), plasma, FIG. 5",increased
